Laboratory results published in patent US11479622B2, “Active energy ray curable composition, active energy ray curable ink, composition accommodating container, two or three dimensional image forming apparatus, two or three dimensional image forming method, cured matter, decorative matter, artificial nail composition, nail decorative material, and …” (priority 2019, dated 2022).
Where two headings read alike, the source gives them in different places.

Key:
[1] = system: female mice
Method: According to the skin sensitization test based on the Local Lymph Node Assay (LLNA), the SI value was measured in the following manner.
As positive control material, α-hexylcinnamaldehyde (HCA; product of Wako Pure Chemical Industries, Ltd.) was used.
As a medium, a liquid mixture containing acetone (product of Wako Pure Chemical Industries, Ltd.) and olive oil (product of Fudimi Pharmaceutical Co., Ltd.) in a volume ratio of 4 to 1 was used.
Before the test, female mice were acclimated about the test substances, the positive control, the medium control for 8 days including 6-day quarantine.
Based on the body weights measured two days before the initiation of sensitization, they were categorized into two groups (four mice/group) by the body weight stratified random sampling method so that the body weight of each individual was within ±20 percent of the average body weight of all the individuals. Each of the animals for the test was eight to nine weeks old at the time of the initiation of sensitization. The individuals remaining after the categorization were excluded from the test.
The test substance was weighed in a measuring flask, and the volume of the test substance was adjusted to 1 mL with the medium. The thus-prepared test substance preparation was placed in a light-shielded airtight container (made of glass).
Prepared liquids and media of each of the test substance and positive control substance were applied to both auricles of the animal in an amount of 25 μL of each. A micropipettor was used for application. This treatment was performed once a day for three consecutive days.
About 48 hours after the final sensitization, the BrdU preparation liquid (0.5 mL) was intraperitoneally administered once to each of the animals.
About 24 hours after the administration of BrdU, the tested animals were allowed to undergo euthanasia, and their auricular lymph nodes were sampled. The surrounding tissue of each auricular lymph node was removed, and the auricular lymph nodes from both the auricles were collectively weighed. Also, the average and standard error of the weights of the auricular lymph nodes were calculated for each group. After the measurement of the weights, the auricular lymph nodes of each individual were stored in a frozen state using a biomedical freezer set to −20 degrees C.
After returning the auricular lymph nodes to room temperature, the auricular lymph nodes were mashed with the gradual addition of physiological saline, and suspended therein. The thus-obtained suspension was filtrated and thereafter dispensed into the wells of a 96-well microplate, with 3 wells being used per individual. The thus-dispensed suspensions were measured for intake of BrdU by the ELISA method. The reagents used were those of a commercially available kit (Cell Proliferation ELISA, BrdU colorimetric, Cat. No. 1647229, product of Roche Diagnostics Inc.). A multiplate reader (FLUOSTAR OPTIMA, product of BMG LABTECH Inc.) was used to measure the absorbance of each well (OD: 370 nm to 492 nm, the intake of BrdU), and the average of the absorbance of the 3 wells for each individual was used as the measurement of BrdU for the individual.
As shown in the following formula, the measurement of BrdU intake for each individual was divided by the average of the measurements of BrdU intake in the vehicle control group to calculate the SI value for the individual. The SI value of each test group was the average of the SI values of the individuals. […] SI=(Average (average of 3 well) of BrdU measuring value of individual)/(Average (average of four animals) of BrdU measuring value of medium control group) Relation 1

[2] = Oral toxicity according to OECD Test Guideline TG423; format: in vivo
[3] = in vivo
[4] = format: cell-based; conditions: OECD test guideline TG471 (±S9mix)
[5] = LLNA, BrdU intake by ELISA, mice, test substance 50.0 w/v percent in acetone/olive oil 4:1, 25 μL per auricle once per day × 3 days

Molecule | SI (stimulation index) ([1]; female, mouse, in vivo, 3 days) | SI (stimulation index) [1, 5] | further results
C=CC(=O)N(C)[C@@H](C)C(=O)OC [Example A1-4, N-acryloyl-N-methyl alanine methyl ester] | (See Synthesis Example 4) SI = 1.12 | – | –
C=CC(=O)N(CC(=O)OC)C(C)C [Example A1-3, N-acryloyl-N-isopropyl glycine methyl ester] | (See Synthesis Example 3) SI = 1.05 | – | –
C=CC(=O)OCC(CC)(COC(=O)C=C)COC(=O)C=C [Example B2-1, reference compound] | – | M-3547, SI = 3.42, manufactured by TOAGOSEI CO., LTD. | –
C=C(C)C(=O)OCC(COC(=O)C(=C)C)OC(C)=O [Example B1-6, 2-acetyl-1,3-glycerol dimethacrylate] | (See Synthesis Example 8) SI = 1.40 | – | –
C=C(C)C(=O)OCCOCCOC(=O)C(=C)C [Example B1-1, diethylene glycol dimethacrylate] | 2G, SI = 1.05, manufactured by Shin-Nakamura Chemical Co.,Ltd. | – | –
C=C(C)C(=O)OCCO [Example A2-1, 2-hydroxyethyl methacrylate, reference compound] | – | 2-hydroxyethyl methacrylate, SI = 1.26, Manufactured by Tokyo Chemical Industry Co. Ltd.. | –
Isobornyl acrylate [Example A2-2, reference compound] | – | Isobornyl acrylate, SI = 8.30, manufactured by Osaka Organic Chemical Company | –
C=CC(=O)N(C)CC(=O)OC [Example A1-1, N-acryloyl-N-methyl glycine methyl ester] | – | (See Synthesis Example 1) SI = 1.00 | SI value (skin sensitivity) ([1]; OECD Test Guideline TG442B): 1.00; Oral toxicity, cases died [2]: 0 out of 6; LD50 ([2]; in vivo, 2000 mg/kg): ≥ 2000 mg/kg; PII (skin irritation) [3]: 0.5; AMES test [4]: negative
C=CC(=O)N(C)[C@@H](C)C(=O)OC(C)C [Example A1-6, N-acryloyl-N-methyl alanine isopropyl ester] | (See Synthesis Example 6) SI = 1.21 | – | –
C=C(C)C(=O)OCC(CC)(COC(=O)C(=C)C)COC(=O)C(=C)C [Example B1-3, trimethylol propane trimethacrylate] | – | TMPT, SI = 1.03, manufactured by Shin Nakamura Chemical Co., Ltd. | –
C=CC(=O)N1CCC(C(=O)OCC)CC1 [Example A1-7, N-acryloyl-piperidine-4-ethyl carboxylate] | (See Synthesis Example 7) SI = 1.70 | – | –
